We go through 9 molecules from patent US9409922B2, “Imidazopyridine macrocycles as inhibitors of human immunodeficiency virus replication” (priority 2014, dated 2016).

The first test relates to NL-RLuc virus. The test can be described thus: Inhibition of HIV replication: NL-RLuc reporter virus in MT-2 cells, luciferase readout. It is filed as cell-based. The conditions noted are these: Human immunodeficiency virus 1, MT2, 120 h, MT-2 cells infected with NL-RLuc virus, 5 days of incubation, 10% FBS, at least 2 experiments. The procedure, abridged: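 Renilla luciferase reporter virus (NL4-3 nef replaced), produced in 293T cells, infected MT-2 cells with serial compound dilutions for 5 days in RPMI 1640 with 10% FBS, 10 mM HEPES pH 7.55. Luciferase measured; EC50 from median effect equation, at least 2 experiments.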
`Cc1cc2nc3c(F)n2c(c1[C@H](OC(C)(C)C)C(=O)O)N1CCC(C)(CC1)OCCCC[C@H](C)Oc1cc(F)c(F)cc1-c1cccc-3c1` [Example 26, (2S)-2-(tert-Butoxy)-2-[(22S)-8,17,18-trifluoro-4,22,28-trimethyl-21,27-dioxa-1,7,34-triazahexacyclo[26.2.2.1^6,^9.1^10,^14.0^2,^7.0^15,^20]tetratriaconta-2,4,6(34),8,10(33),11,13,15(20),16,18-decaen-3-yl]acetic acid] yielded an EC50 of 26 nM.

In turn, `Cc1cc2c(cc1C)-c1cccc(c1)-c1cn3c(c([C@H](OC(C)(C)C)C(=O)O)c(C)cc3n1)N1CCC(C)(CC1)OCC=CC[C@H](C)O2` [Example 17, (2S)-2-(tert-Butoxy)-2-[(22S)-4,17,18,22,28-pentamethyl-21,27-dioxa-1,7,34-triazahexacyclo[26.2.2.1^6,^9.1^10,^14.0^2,^7.0^15,^20]tetratriaconta-2,4,6(34),8,10(33),11,13,15(20),16,18,24-undecaen-3-yl]acetic acid] came in with an EC50 of 6 nM.

The molecule `Cc1c([C@H](OC(C)(C)C)C(=O)O)c2n3cc(nc3c1C)-c1cccc(c1)-c1cccc(F)c1O[C@@H](C)CCCCOC1(C)CCN2CC1` [Example 37, (2S)-2-(tert-Butoxy)-2-[(22S)-19-fluoro-4,5,22,28-tetramethyl-21,27-dioxa-1,7,34-triazahexacyclo[26.2.2.1^6,^9.1^10,^14.0^2,^7.0^15,^20]tetratriaconta-2,4,6(34),8,10(33),11,13,15(20),16,18-decaen-3-yl]acetic acid] gave a concentration for a half-maximal effect (EC50) of 10 nM. Compared with the last molecule, the EC50 is about 1.7-fold higher.

`Cc1c([C@H](OC(C)(C)C)C(=O)O)c2n3cc(nc3c1C)-c1cccc(c1)-c1cc(F)c(F)cc1O[C@@H](C)CCCCOC1(C)CCN2CC1` [Example 41, (2S)-2-(tert-Butoxy)-2-[(22S)-17,18-difluoro-4,5,22,28-tetramethyl-21,27-dioxa-1,7,34-triazahexacyclo[26.2.2.1^6,^9.1^10,^14.0^2,^7.0^15,^20]tetratriaconta-2,4,6(34),8,10(33),11,13,15(20),16,18-decaen-3-yl]acetic acid] displayed an EC50 of 13 nM.

`Cc1cc2c(cc1F)-c1cccc(c1)-c1cn3c(c([C@H](OC(C)(C)C)C(=O)O)c(C)c(NS(C)(=O)=O)c3n1)N1CCC(C)(CC1)OCCCC[C@H](C)O2` [Example 31, (2S)-2-(tert-Butoxy)-2-[(22S)-17-fluoro-5-methanesulfonamido-4,18,22,28-tetramethyl-21,27-dioxa-1,7,34-triazahexacyclo[26.2.2.1^6,^9.1^10,^14.0^2,^7.0^15,^20]tetratriaconta-2,4,6(34),8,10(33),11,13,15(20),16,18-decaen-3-yl]acetic acid] gave an EC50 of 19 nM.

Molecule `Cc1cc2nc3cn2c(c1[C@H](OC(C)(C)C)C(=O)O)N1CCC(C)(CC1)OC/C=C/C[C@H](C)Oc1cc(F)ccc1-c1cccc-3c1` [Example 6, (2S)-2-(tert-Butoxy)-2-[(22S)-18-fluoro-4,22,28-trimethyl-21,27-dioxa-1,7,34-triazahexacyclo[26.2.2.1^6,^9.1^10,^14.0^2,^7.0^15,^20]tetratriaconta-2,4,6(34),8,10(33),11,13,15(20),16,18,24-undecaen-3-yl]acetic acid] displayed an EC50 of 5 nM.

`Cc1cc2nc3cn2c(c1[C@H](OC(C)(C)C)C(=O)O)N1CCC(C)(CC1)OCCCCCOc1ccccc1Cc1nnc-3o1` [Example 4, (2S)-2-(tert-Butoxy)-2-{4,28-dimethyl-21,27,33-trioxa-1,7,11,12,34-pentaazahexacyclo[26.2.2.1^6,^9.1^10,^13.0^2,^7.0^15,^20]tetratriaconta-2,4,6(34),8,10,12,15(20),16,18-nonaen-3-yl}acetic acid] gave an EC50 of 10 nM.

Still in this test, the particulars now being: MT-2 cells infected with NL-RLuc virus, 5 days of incubation, 10% FBS, at least 2 experiments.
Consider `Cc1c([C@H](OC(C)(C)C)C(=O)O)c2n3cc(nc3c1C)-c1cccc(c1)-c1c(F)cc(F)cc1O[C@@H](C)CCCCOC1(C)CCN2CC1` [Example 44, (2S)-2-(tert-butoxy)-2-[(22S)-16,18-difluoro-4,5,22,28-tetramethyl-21,27-dioxa-1,7,34-triazahexacyclo[26.2.2.1^6,^9.1^10,^14.0^2,^7.0^15,^20]tetratriaconta-2,4,6(34),8,10(33),11,13,15(20),16,18-decaen-3-yl]acetic acid], for which the EC50 was determined as 331 nM.

On to `Cc1c([C@H](OC(C)(C)C)C(=O)O)c2n3cc(nc3c1C(C)O)-c1cccc(c1)-c1c(ccc(F)c1F)O[C@@H](C)CCCCOC1(C)CCN2CC1` (stereo partly drawn) [Example 50, (2S)-2-(tert-Butoxy)-2-[(22S)-16,17-difluoro-5-(1-hydroxyethyl)-4,22,28-trimethyl-21,27-dioxa-1,7,34-triazahexacyclo[26.2.2.1^6,^9.1^10,^14.0^2,^7.0^15,^20]tetratriaconta-2,4,6(34),8,10(33),11,13,15(20),16,18-decaen-3-yl]acetic acid], for which the EC50 is 10 nM.

Broadly, the EC50 is the concentration that produces a half-maximal response. A high value points to weaker potency.
